Legend:
[1] = Compound was evaluated for the inhibition of […] I-CCK-8 binding at Cholecystokinin type B receptor on guinea pig cerebral cortical membranes
[2] = Compound was evaluated for the inhibition of […] I-CCK-8 binding at CCK-B receptor Cholecystokinin type B receptor cerebral cortical membranes

SMILES	IC50 [1]	IC50 [2]
O=C(Nc1cccc(-c2nnn[nH]2)c1)NC1N=C(c2ccccc2F)c2ccccc2N(CC(=O)N2CC3CCC(CC3)C2)C1=O (stereo not drawn) [1-[1-[2-(3-Aza-bicyclo[3.2.2]non-3-yl)-2-oxo-ethyl]-5-(2-fluoro-phenyl)-2-oxo-2,3-dihydro-1H-benzo[e][1,4]diazepin-3-yl]-3-[3-(1H-tetrazol-5-yl)-phenyl]-urea]	0.087 nM	–
O=C(Nc1cccc(-c2nnn[nH]2)c1)NC1N=C(c2ccccc2F)c2cccc(Cl)c2N(CC(=O)N2CC3CCC(CC3)C2)C1=O (stereo not drawn) [1-[1-[2-(3-Aza-bicyclo[3.2.2]non-3-yl)-2-oxo-ethyl]-9-chloro-5-(2-fluoro-phenyl)-2-oxo-2,3-dihydro-1H-benzo[e][1,4]diazepin-3-yl]-3-[3-(1H-tetrazol-5-yl)-phenyl]-urea]	–	0.66 nM
CCc1cccc2c1N(CC(=O)N1CC3CCC(CC3)C1)C(=O)C(NC(=O)Nc1cccc(-c3nnn[nH]3)c1)N=C2c1ccccc1F (stereo not drawn) [1-[1-[2-(3-Aza-bicyclo[3.2.2]non-3-yl)-2-oxo-ethyl]-9-ethyl-5-(2-fluoro-phenyl)-2-oxo-2,3-dihydro-1H-benzo[e][1,4]diazepin-3-yl]-3-[3-(1H-tetrazol-5-yl)-phenyl]-urea]	0.81 nM	–

Source: BindingDB's records for doi:10.1016/s0960-894x(98)00237-6 (Fujisawa Pharmaceutical, 1999)
